Measurements from ChEMBL document CHEMBL1135329, “DNA binding ligands with excellent antibiotic potency against drug-resistant gram-positive bacteria” (Bioorg Med Chem Lett, 2002).
pKd: −log10 of the molar value. In brackets after ≈: the same amount, converted by molar mass.

Columns and labels:
Assay type in all cases: functional
Candida albicans = experiment: Antifungal activity was determined against Candida albicans
Escherichia coli = experiment: Binding to the sequence 5'-ACAATTAA-3', a site proximal to the […] RNA polymerase subunit binding site within the Escherichia coli Trc promoter.; conditions: read-out: Kd app
Enterococcus faecalis [1] = experiment: Antimicrobial activity was determined against vancomycin-resistant Enterococcus faecalis (VREF 51559)
Enterococcus faecalis [2] = experiment: Antimicrobial activity was determined against vancomycin-susceptible Enterococcus faecalis (VSEF 29212)
Staphylococcus aureus [3] = experiment: Antimicrobial activity was determined against methicillin-resistant Staphylococcus aureus (MRSA 27660)
Staphylococcus aureus [4] = experiment: Antimicrobial activity was determined against methicillin-susceptible S. aureus(MSSA 29213)
Streptococcus pneumoniae [5] = experiment: Antimicrobial activity was determined against penicillin-resistant Streptococcus pneumoniae (PRSP 51422)
Streptococcus pneumoniae [6] = experiment: Antimicrobial activity was determined against penicillin-susceptible Streptococcus pneumoniae (PSSP 49619)

Structure (SMILES) | MIC (Candida albicans) [µg/mL] | pKd (Escherichia coli) | MIC (Enterococcus faecalis [1]) [µg/mL] | MIC (Enterococcus faecalis [2]) [µg/mL] | MIC (Staphylococcus aureus [3]) [µg/mL] | MIC (Staphylococcus aureus [4]) [µg/mL] | MIC (Streptococcus pneumoniae [5]) [µg/mL] | MIC (Streptococcus pneumoniae [6]) [µg/mL]
CCOCCCNC(=O)c1cc(NC(=O)c2cc(NC(=O)c3cc(NC(=O)c4nsc(NCCN5CCOCC5)c4Cl)cn3C)cn2C)cn1C | > 32 | 7.08 | 4 (≈ 5.38 µM) | 16 (≈ 21.5 µM) | 16 (≈ 21.5 µM) | 16 (≈ 21.5 µM) | 1 (≈ 1.35 µM) | 0.5 (≈ 0.673 µM)
Cn1cc(NC(=O)c2cc(NC(=O)c3cc(NC(=O)c4nsc(NCCCNC5CCCCC5)c4Cl)cn3C)cn2C)cc1C(=O)NCCCCN | 4 (≈ 5.3 µM) | 8.70 | 16 (≈ 21.2 µM) | 2 (≈ 2.65 µM) | 2 (≈ 2.65 µM) | 2 (≈ 2.65 µM) | 16 (≈ 21.2 µM) | 1 (≈ 1.33 µM)
CN(C)CCCNC(=O)c1cc(NC(=O)c2cc(NC(=O)c3cc(NC(=O)c4nsc(NCCCCCCCN)c4Cl)cn3C)cn2C)cn1C | > 32 | 8.89 | 1 (≈ 1.35 µM) | 8 (≈ 10.8 µM) | 32 (≈ 43.1 µM) | 32 (≈ 43.1 µM) | 16 (≈ 21.6 µM) | 32 (≈ 43.1 µM)
Cn1cc(NC(=O)c2cc(NC(=O)c3cc(NC(=O)c4nsc(NCCN5CCOCC5)c4Cl)cn3C)cn2C)cc1C(=O)NCCN1CCOCC1 | > 32 | 8.04 | 2 (≈ 2.6 µM) | 0.25 (≈ 0.325 µM) | 4 (≈ 5.19 µM) | 1 (≈ 1.3 µM) | 0.25 (≈ 0.325 µM) | 0.062 (≈ 0.0805 µM)
Cn1cc(NC(=O)c2cc(NC(=O)c3cc(NC(=O)c4nsc(NCCN5CCOCC5)c4Cl)cn3C)cn2C)cc1C(=O)NCCCO | > 32 | 7.49 | > 32 | 32 (≈ 44.7 µM) |  | > 32 | 1 (≈ 1.4 µM) | 32 (≈ 44.7 µM)
CCOCCCNc1snc(C(=O)Nc2cc(C(=O)Nc3cc(C(=O)Nc4cc(C(=O)NCCN5CCOCC5)n(C)c4)n(C)c3)n(C)c2)c1Cl | > 32 | 8.87 | 2 (≈ 2.69 µM) | 0.25 (≈ 0.336 µM) | 2 (≈ 2.69 µM) | 1 (≈ 1.35 µM) | 0.125 (≈ 0.168 µM) | 0.25 (≈ 0.336 µM)
Cn1cc(NC(=O)c2cc(NC(=O)c3cc(NC(=O)c4nsc(NCCN5CCOCC5)c4Cl)cn3C)cn2C)cc1C(=O)NCCc1ccncc1 | > 32 | 8.36 | 0.25 (≈ 0.328 µM) | 0.062 (≈ 0.0813 µM) | 0.5 (≈ 0.656 µM) | 0.125 (≈ 0.164 µM) | 0.5 (≈ 0.656 µM) | 0.062 (≈ 0.0813 µM)
Cn1cc(NC(=O)c2cc(NC(=O)c3cc(NC(=O)c4nsc(NCCCNC5CCCCC5)c4Cl)cn3C)cn2C)cc1C(=O)NCCN1CCOCC1 | 16 (≈ 20.1 µM) | 9.23 | 16 (≈ 20.1 µM) | 2 (≈ 2.51 µM) | 8 (≈ 10 µM) | 2 (≈ 2.51 µM) | 0.25 (≈ 0.314 µM) | 0.062 (≈ 0.0779 µM)
Cn1cc(NC(=O)c2cc(NC(=O)c3cc(NC(=O)c4nsc(NCC5CC5)c4Cl)cn3C)cn2C)cc1C(=O)NCCN1CCOCC1 | > 32 | 9.00 | 1 (≈ 1.41 µM) | 0.25 (≈ 0.351 µM) | 1 (≈ 1.41 µM) | 0.5 (≈ 0.703 µM) | 0.125 (≈ 0.176 µM) | 0.125 (≈ 0.176 µM)
CN(C)CCCNC(=O)c1cc(NC(=O)c2cc(NC(=O)c3cc(NC(=O)c4nsc(NCCCCN)c4Cl)cn3C)cn2C)cn1C | 8 (≈ 11.4 µM) | 8.98 | 1 (≈ 1.43 µM) | 1 (≈ 1.43 µM) | 2 (≈ 2.86 µM) | 2 (≈ 2.86 µM) | 1 (≈ 1.43 µM) | 0.5 (≈ 0.714 µM)
Cn1cc(NC(=O)c2cc(NC(=O)c3cc(NC(=O)c4nsc(N5CCCCC5)c4Cl)cn3C)cn2C)cc1C(=O)NCCN1CCOCC1 | > 32 | 8.40 | 1 (≈ 1.38 µM) | 1 (≈ 1.38 µM) | 1 (≈ 1.38 µM) | 2 (≈ 2.76 µM) | 0.062 (≈ 0.0855 µM) | 0.125 (≈ 0.172 µM)
Cn1cc(NC(=O)c2cc(NC(=O)c3cc(NC(=O)c4nsc(NCCc5ccccn5)c4Cl)cn3C)cn2C)cc1C(=O)NCCN1CCOCC1 | > 32 | 9.08 | 4 (≈ 5.25 µM) | 0.5 (≈ 0.656 µM) | 2 (≈ 2.62 µM) | 1 (≈ 1.31 µM) | 0.5 (≈ 0.656 µM) | 0.125 (≈ 0.164 µM)
Cn1cc(NC(=O)c2cc(NC(=O)c3cc(NC(=O)c4nsc(NCCCCN)c4Cl)cn3C)cn2C)cc1C(=O)NCCN1CCOCC1 | 8 (≈ 11 µM) | 9.43 | 16 (≈ 22 µM) | 4 (≈ 5.49 µM) | 4 (≈ 5.49 µM) | 4 (≈ 5.49 µM) | 0.5 (≈ 0.687 µM) | 0.5 (≈ 0.687 µM)
Cn1cc(NC(=O)c2cc(NC(=O)c3cc(NC(=O)c4nsc(NCCCNC5CCCCC5)c4Cl)cn3C)cn2C)cc1C(=O)NCCCNC1CCCCC1 | 16 (≈ 19.5 µM) | 8.92 | 2 (≈ 2.43 µM) | 2 (≈ 2.43 µM) | 1 (≈ 1.22 µM) | 1 (≈ 1.22 µM) | 0.5 (≈ 0.608 µM) | 2 (≈ 2.43 µM)
CN(C)CCCCNC(=O)c1cc(NC(=O)c2cc(NC(=O)c3cc(NC(=O)c4nsc(NCCCN)c4Cl)cn3C)cn2C)cn1C | 0.25 (≈ 0.357 µM) | 9.28 | 0.25 (≈ 0.357 µM) | 0.125 (≈ 0.179 µM) | 0.25 (≈ 0.357 µM) | 0.5 (≈ 0.714 µM) | 0.125 (≈ 0.179 µM) | 0.064 (≈ 0.0914 µM)
CN(C)CCCNC(=O)c1cc(NC(=O)c2cc(NC(=O)c3cc(NC(=O)c4nsc(NCCCN)c4Cl)cn3C)cn2C)cn1C | 8 (≈ 11.7 µM) | 8.76 | 2 (≈ 2.91 µM) | 1 (≈ 1.46 µM) | 1 (≈ 1.46 µM) | 2 (≈ 2.91 µM) | 4 (≈ 5.83 µM) | 0.5 (≈ 0.729 µM)
Cn1cc(NC(=O)c2cc(NC(=O)c3cc(NC(=O)c4nsc(NCCCCN)c4Cl)cn3C)cn2C)cc1C(=O)NCCCNC1CCCCC1 | 32 (≈ 42.4 µM) | 9.37 | 2 (≈ 2.65 µM) | 0.5 (≈ 0.663 µM) | 1 (≈ 1.33 µM) | 0.5 (≈ 0.663 µM) | 4 (≈ 5.3 µM) | 1 (≈ 1.33 µM)
Cn1cc(NC(=O)c2cc(NC(=O)c3cc(NC(=O)c4nsc(NCCCO)c4Cl)cn3C)cn2C)cc1C(=O)NCCN1CCOCC1 | > 32 | 8.99 | 0.5 (≈ 0.699 µM) | 0.125 (≈ 0.175 µM) | 2 (≈ 2.8 µM) | 1 (≈ 1.4 µM) | 0.031 (≈ 0.0433 µM) | 0.5 (≈ 0.699 µM)
Cn1cc(NC(=O)c2cc(NC(=O)c3cc(NC(=O)c4nsc(NCCN5CCOCC5)c4Cl)cn3C)cn2C)cc1C(=O)NCC1CC1 | > 32 | 6.68 | 1 (≈ 1.41 µM) | 0.5 (≈ 0.703 µM) | 8 (≈ 11.2 µM) | 16 (≈ 22.5 µM) | 0.5 (≈ 0.703 µM) | 1 (≈ 1.41 µM)
Cn1cc(NC(=O)c2cc(NC(=O)c3cc(NC(=O)c4nsc(NCCc5ccncc5)c4Cl)cn3C)cn2C)cc1C(=O)NCCN1CCOCC1 | > 32 | 9.54 | 2 (≈ 2.62 µM) | 0.25 (≈ 0.328 µM) | 1 (≈ 1.31 µM) | 1 (≈ 1.31 µM) | 0.25 (≈ 0.328 µM) | 0.062 (≈ 0.0813 µM)
